In article PMC5218480 (PLoS ONE, 2017):

Test system: MV-4-11 cells
Test: Gene expression microarray analysis (Affymetrix PrimeView) and GSEA
Type: cell-based, human
Conditions: gene FGFR1OP; ACY-1035 1 mM; LIST F

Q: Which “RFU, FGFR1OP (ProbeSet 11751329_s_at)” value does the source give for `Nc1ccc(-c2cccs2)cc1NC(=O)c1ccc2c(c1)cc(C1CC1)n2CCN1CCOCC1` [ACY-1035] here?
A: The value was 243.91 RFU.
